Key:
Assay type in all cases: functional, cell-based
[1] = Cytotoxicity against human BGC823 cells by MTT assay; settings: BGC-823
[2] = Cytotoxicity against human SKOV3 cells by MTT assay; settings: SK-OV-3
HeLa = test: Cytotoxicity against human HeLa cells by MTT assay
HepG2 = test: Cytotoxicity against human HepG2 cells by MTT assay

| SMILES | IC50 [1] | IC50 [2] | IC50 (HeLa) | IC50 (HepG2) |
| --- | --- | --- | --- | --- |
| CC(=O)O[C@H]1CC[C@]2(C)[C@H]3CC=C4[C@@H]5[C@@H](C)[C@H](C)CC[C@]5(C(=O)NCCCN5CCOCC5)CC[C@@]4(C)[C@]3(C)CC[C@H]2C1(C)C | 4.46 µM | 7.4 µM | 2.71 µM | – |
| C[C@H]1[C@H](C)CC[C@]2(C(=O)O)CC[C@]3(C)C(=CC[C@@H]4[C@@]5(C)CC[C@H](OC(=O)CCC(=O)OCCOc6no[n+]([O-])c6S(=O)(=O)c6ccccc6)C(C)(C)[C@@H]5CC[C@]43C)[C@H]12 | – | – | – | 3.2 µM |
